Common to all, as to format: biochemical
One assay has as its target CDK9/Cyclin T (Homo sapiens (Human), UniProt P50750). The assay is described as follows: CDK9/Cyclin T kinase assay (Biological Table 3).
Another assay deals with CDK6/Cyclin D3 (Homo sapiens (Human), UniProt Q00534). The assay can be described thus: CDK6/Cyclin D3 kinase assay (Biological Table 3). As for the experimental part: [Worded in the source for another target; this target is reported under the same test.] Selected compounds disclosed herein were tested in CDK4/cyclinD1, CDK2/CycA and CDK2/cyclinE kinase assays by Nanosyn (Santa Clara, Calif.) to determine their inhibitory effect on these CDKs. The assays were performed using microfluidic kinase detection technology (Caliper Assay Platform). The compounds were tested in 12-point dose-response format in singlicate at Km for ATP. Phosphoacceptor substrate peptide concentration used was 1 μM for all assays and Staurosporine was used as the reference compound for all assays.

The next assay addresses CDK4/CyclinD1 (Homo sapiens (Human), UniProt P11802). The assay is described as follows: CDK4/cyclinD1 kinase assay, microfluidic kinase detection (Caliper, Nanosyn). As to conditions: 12-point dose-response, ATP at Km (200 μM), enzyme 1 nM, incubation 10 hr; read-out: CDK4/Cyclin D1. As for the experimental part:
(§1) Selected compounds disclosed herein were tested in CDK4/cyclinD1, CDK2/CycA and CDK2/cyclinE kinase assays by Nanosyn (Santa Clara, Calif.) to determine their inhibitory effect on these CDKs. The assays were performed using microfluidic kinase detection technology (Caliper Assay Platform). The compounds were tested in 12-point dose-response format in singlicate at Km for ATP. Phosphoacceptor substrate peptide concentration used was 1 μM for all assays and Staurosporine was used as the reference compound for all assays. Specifics of each assay are as described below:
CDK4/CyclinD1: Enzyme concentration: 1 nM; ATP concentration: 200 μM; Incubation time: 10 hr.

The target in another assay is CDK2/CyclinE (Homo sapiens (Human), UniProt P24941). The assay can be described thus: CDK2/cyclinE kinase assay, microfluidic kinase detection (Caliper, Nanosyn). The note with it: 12-point dose-response, ATP at Km (100 μM), enzyme 0.28 nM, incubation 1 hr; read-out: CDK2/Cyclin E. As for the experimental part:
as §1
CDK2/CyclinE: Enzyme concentration: 0.28 nM; ATP concentration: 100 μM; Incubation time: 1 hr.

Another assay deals with CDK2/CyclinA (Homo sapiens (Human), UniProt P24941). The assay is described as follows: CDK2/CycA kinase assay, microfluidic kinase detection (Caliper, Nanosyn). As to conditions: 12-point dose-response, ATP at Km (50 μM), enzyme 0.2 nM, incubation 3 hr; read-out: CDK2/Cyclin A. The protocol: as §1
CDK2/CyclinA: Enzyme concentration: 0.2 nM; ATP concentration: 50 μM; Incubation time: 3 hr.

The next assay concerns the target CDK6/CycD3 (Homo sapiens (Human), UniProt Q00534). The assay is described as follows: CDK6/CycD3 kinase inhibition (Biological Table 1).
The next assay deals with CDK5/p25 (Homo sapiens (Human), UniProt Q00535). The assay can be described thus: CDK5/p25 kinase inhibition (Biological Table 2).
For a further assay, the target named is CDK9/CycT (Homo sapiens (Human), UniProt P50750). The assay is described as follows: CDK9/CycT kinase inhibition (Biological Table 2).
In the next assay the target is CDK7/CycH/MAT1 (Homo sapiens (Human), UniProt P50613). The assay is described as follows: CDK7/CycH/MAT1 kinase inhibition (Biological Table 2).
Another assay concerns the target CDK2/CycA (Homo sapiens (Human), UniProt P24941). The assay can be described thus: CDK2/CycA kinase inhibition (Biological Table 1).
The target in a further assay is CDK2/CycE (Homo sapiens (Human), UniProt P24941). The assay is described as follows: CDK2/CycE kinase inhibition (Biological Table 1).
For the next assay, the target named is CDK5/p35 (Homo sapiens (Human), UniProt Q00535). The assay is described as follows: CDK5/p35 kinase inhibition (Biological Table 1).
The target in another assay is CDK4/CycD (Homo sapiens (Human), UniProt P11802). The assay is described as follows: CDK4/CycD kinase inhibition (Biological Table 1).

This is an account of results in US10829490B2, “Substituted dihydropyrazino[1 ′,2′:1,5]pyrrolo[2,3-d]pyrimidine-based antiproliferative agents” (G1 Therapeutics, Inc., priority 2016, dated 2020).

Sequence of CDK4/CycD (P11802 whole entry): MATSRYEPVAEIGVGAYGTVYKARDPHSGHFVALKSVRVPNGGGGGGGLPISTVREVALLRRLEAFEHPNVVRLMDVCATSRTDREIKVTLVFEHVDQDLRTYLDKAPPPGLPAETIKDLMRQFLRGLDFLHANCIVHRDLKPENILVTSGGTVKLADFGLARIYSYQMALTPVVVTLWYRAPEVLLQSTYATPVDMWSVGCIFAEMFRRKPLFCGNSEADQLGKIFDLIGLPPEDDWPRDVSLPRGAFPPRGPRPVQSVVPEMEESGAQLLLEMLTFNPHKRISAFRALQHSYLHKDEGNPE
Sequence of CDK4/CycD (P24385 whole entry partner): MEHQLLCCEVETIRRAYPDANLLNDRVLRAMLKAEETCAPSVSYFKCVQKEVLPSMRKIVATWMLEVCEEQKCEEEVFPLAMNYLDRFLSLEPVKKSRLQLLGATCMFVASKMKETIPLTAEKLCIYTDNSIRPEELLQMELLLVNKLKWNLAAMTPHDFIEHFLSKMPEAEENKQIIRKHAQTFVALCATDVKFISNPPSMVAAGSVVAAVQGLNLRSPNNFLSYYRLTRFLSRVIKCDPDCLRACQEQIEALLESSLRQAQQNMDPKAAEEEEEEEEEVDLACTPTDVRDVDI
Sequence of CDK4/CyclinD1 (P11802 whole entry): as the sequence (P11802 whole entry) above
Sequence of CDK4/CyclinD1 (P24385 whole entry partner): as the sequence (P24385 whole entry partner) above
Sequence of CDK6/CycD3 (Q00534 whole entry): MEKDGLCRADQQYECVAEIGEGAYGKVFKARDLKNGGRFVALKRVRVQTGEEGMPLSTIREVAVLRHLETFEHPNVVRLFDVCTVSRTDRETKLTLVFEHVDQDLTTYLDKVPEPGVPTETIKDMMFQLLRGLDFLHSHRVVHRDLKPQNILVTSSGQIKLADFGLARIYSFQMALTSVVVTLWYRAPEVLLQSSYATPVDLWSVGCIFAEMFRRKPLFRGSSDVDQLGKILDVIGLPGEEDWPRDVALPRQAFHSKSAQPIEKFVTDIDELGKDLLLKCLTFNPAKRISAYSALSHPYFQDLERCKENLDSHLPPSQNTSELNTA
Sequence of CDK6/CycD3 (P30281 whole entry partner): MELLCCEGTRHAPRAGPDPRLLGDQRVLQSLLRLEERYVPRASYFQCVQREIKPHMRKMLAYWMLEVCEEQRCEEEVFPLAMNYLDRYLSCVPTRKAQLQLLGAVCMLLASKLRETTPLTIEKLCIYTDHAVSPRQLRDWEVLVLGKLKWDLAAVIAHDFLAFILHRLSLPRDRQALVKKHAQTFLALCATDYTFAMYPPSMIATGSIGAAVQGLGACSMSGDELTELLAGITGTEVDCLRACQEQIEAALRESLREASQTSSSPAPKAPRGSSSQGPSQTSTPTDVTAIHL
Sequence of CDK6/Cyclin D3 (Q00534 whole entry): as the sequence (Q00534 whole entry) above
Sequence of CDK6/Cyclin D3 (P30281 whole entry partner): as the sequence (P30281 whole entry partner) above
Sequence of CDK9/CycT (P50750 whole entry): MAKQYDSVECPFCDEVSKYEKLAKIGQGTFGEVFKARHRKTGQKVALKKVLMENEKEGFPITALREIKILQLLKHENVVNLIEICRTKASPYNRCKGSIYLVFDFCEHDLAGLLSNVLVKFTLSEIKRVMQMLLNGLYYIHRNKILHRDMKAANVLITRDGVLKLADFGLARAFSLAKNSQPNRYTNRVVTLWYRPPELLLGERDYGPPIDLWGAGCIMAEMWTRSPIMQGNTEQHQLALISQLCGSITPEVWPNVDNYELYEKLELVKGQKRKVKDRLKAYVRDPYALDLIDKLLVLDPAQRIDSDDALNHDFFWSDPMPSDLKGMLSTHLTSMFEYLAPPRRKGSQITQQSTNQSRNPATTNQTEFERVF
Sequence of CDK9/CycT (O60563 whole entry partner): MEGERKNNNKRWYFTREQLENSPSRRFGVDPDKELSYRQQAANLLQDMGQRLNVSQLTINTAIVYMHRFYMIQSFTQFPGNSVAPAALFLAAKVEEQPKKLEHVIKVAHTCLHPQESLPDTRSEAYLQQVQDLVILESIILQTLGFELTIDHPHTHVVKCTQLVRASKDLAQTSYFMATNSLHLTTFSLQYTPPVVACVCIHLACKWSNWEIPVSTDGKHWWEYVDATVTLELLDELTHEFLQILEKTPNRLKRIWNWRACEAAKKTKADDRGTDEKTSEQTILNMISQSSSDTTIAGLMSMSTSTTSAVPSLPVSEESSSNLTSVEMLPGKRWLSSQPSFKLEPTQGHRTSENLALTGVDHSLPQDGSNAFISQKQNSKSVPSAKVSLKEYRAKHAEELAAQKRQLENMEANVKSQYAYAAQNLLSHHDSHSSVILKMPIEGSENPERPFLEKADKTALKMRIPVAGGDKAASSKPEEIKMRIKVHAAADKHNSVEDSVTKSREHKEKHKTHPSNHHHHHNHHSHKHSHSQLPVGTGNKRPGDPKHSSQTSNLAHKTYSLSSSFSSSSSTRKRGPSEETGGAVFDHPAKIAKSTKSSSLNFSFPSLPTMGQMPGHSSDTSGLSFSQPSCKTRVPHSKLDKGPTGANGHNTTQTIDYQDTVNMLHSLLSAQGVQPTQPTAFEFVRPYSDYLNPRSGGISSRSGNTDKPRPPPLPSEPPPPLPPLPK
Sequence of CDK9/Cyclin T (P50750 whole entry): as the sequence (P50750 whole entry) above
Sequence of CDK9/Cyclin T (O60563 whole entry partner): as the sequence (O60563 whole entry partner) above
Sequence of CDK5/p35 (Q00535 whole entry): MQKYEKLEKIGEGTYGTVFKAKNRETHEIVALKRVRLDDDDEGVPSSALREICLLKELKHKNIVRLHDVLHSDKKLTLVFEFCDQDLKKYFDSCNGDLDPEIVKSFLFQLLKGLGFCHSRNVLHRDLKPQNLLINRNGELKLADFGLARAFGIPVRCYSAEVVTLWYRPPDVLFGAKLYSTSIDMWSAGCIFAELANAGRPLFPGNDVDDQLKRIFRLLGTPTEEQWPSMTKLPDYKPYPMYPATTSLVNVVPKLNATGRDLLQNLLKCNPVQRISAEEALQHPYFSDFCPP
Sequence of CDK5/p35 (Q15078 whole entry partner): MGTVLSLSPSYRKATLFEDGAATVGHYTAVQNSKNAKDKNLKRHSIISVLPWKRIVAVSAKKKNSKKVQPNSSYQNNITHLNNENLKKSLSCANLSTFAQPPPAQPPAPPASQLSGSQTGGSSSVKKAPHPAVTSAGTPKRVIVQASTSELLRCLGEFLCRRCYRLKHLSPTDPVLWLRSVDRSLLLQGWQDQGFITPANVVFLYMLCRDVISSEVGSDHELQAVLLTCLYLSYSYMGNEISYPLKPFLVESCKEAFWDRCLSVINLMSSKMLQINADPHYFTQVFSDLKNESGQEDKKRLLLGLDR
Sequence of CDK5/p25 (Q00535 whole entry): as the sequence (Q00535 whole entry) above
Sequence of CDK7/CycH/MAT1 (P50613 whole entry): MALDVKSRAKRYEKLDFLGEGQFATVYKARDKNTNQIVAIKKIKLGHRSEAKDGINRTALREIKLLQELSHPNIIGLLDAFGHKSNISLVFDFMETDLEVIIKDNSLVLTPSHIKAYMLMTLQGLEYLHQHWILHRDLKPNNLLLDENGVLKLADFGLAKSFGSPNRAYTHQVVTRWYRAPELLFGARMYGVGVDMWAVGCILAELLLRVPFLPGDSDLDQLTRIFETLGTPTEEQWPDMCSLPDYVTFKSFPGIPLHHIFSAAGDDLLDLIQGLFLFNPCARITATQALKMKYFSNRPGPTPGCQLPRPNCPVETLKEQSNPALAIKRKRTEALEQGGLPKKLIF
Sequence of CDK7/CycH/MAT1 (P51946 whole entry partner): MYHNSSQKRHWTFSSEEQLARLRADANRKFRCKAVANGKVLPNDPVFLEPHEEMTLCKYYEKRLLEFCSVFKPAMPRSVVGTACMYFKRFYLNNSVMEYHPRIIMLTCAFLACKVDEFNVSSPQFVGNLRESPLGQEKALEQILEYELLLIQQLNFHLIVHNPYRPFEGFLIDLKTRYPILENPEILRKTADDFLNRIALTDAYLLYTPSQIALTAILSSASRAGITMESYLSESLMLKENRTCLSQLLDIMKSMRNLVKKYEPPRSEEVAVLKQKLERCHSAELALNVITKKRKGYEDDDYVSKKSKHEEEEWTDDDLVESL
Sequence of CDK7/CycH/MAT1 (P51948 whole entry partner): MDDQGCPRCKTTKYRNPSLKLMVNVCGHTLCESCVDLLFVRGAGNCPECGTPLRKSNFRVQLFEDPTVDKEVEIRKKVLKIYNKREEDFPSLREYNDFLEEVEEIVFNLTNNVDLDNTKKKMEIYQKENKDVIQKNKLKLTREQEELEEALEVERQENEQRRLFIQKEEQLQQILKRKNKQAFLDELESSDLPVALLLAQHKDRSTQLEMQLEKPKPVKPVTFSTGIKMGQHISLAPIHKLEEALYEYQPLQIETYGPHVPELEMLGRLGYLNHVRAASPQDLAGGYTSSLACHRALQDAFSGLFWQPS

`O=C1NCC2(CCCCC2)n2c1cc1cnc(N[C@H]3CC[C@@H](N4CCN(CC5CC5)CC4)CC3)nc12` [Compound 40, 2′-(((1S,4S)-4-(4-(Cyclopropylmethyl)piperazin-1-yl)cyclohexyl)amino)-7′,8′-dihydro-6′H-spiro [cyclohexane-1,9′-pyrazino[1′,2′:1,5]pyrrolo[2,3-d]pyrimidin]-6′-one]: the IC50 at CDK9/Cyclin T came out at 50 nM; at CDK6/Cyclin D3, 500 nM; on CDK4/CyclinD1, 90 nM; at CDK2/CyclinE, 5 µM; on CDK2/CyclinA it was 2000 nM.

On to `CN1CCN(c2ccc(Nc3ncc4cc5n(c4n3)C3(CCOCC3)CNC5=O)nc2)CC1` [Compound 34, 2′-((5-(4-Methylpiperazin-1-yl)pyridin-2-yl)amino)-2,3,5,6,7′,8′-hexahydro-6′H-spiro [pyran-4,9′-pyrazino [1′,2′:1,5]pyrrolo [2,3-d]pyrimidin]-6′-one], for which the IC50 is 400 nM against CDK9/Cyclin T; 20 nM against CDK6/Cyclin D3; 20 nM at CDK4/CyclinD1; 23 µM at CDK2/CyclinE; 14000 nM at CDK2/CyclinA.

In the case of `CO[C@H]1CC[C@@]2(CC1)CNC(=O)c1cc3cnc(Nc4ccc(N5CCN(C)CC5)cn4)nc3n12` [Compound 38, (1S,4S)-4-Methoxy-2′-((5-(4-methylpiperazin-1-yl)pyridin-2-yl)amino)-7′,8′-dihydro-6′H-spiro[cyclohexane-1,9′-pyrazino[1′,2′:1,5]pyrrolo [2,3-d]pyrimidin]-6′-one], the IC50 on CDK9/Cyclin T is 200 nM; at CDK6/Cyclin D3, 10 nM; at CDK4/CyclinD1, 7 nM; on CDK2/CyclinE, 14 µM; on CDK2/CyclinA it was 5000 nM.

In the case of `CN1CCN(c2ccc(Nc3ncc4c(n3)N3C(CC4=O)C(=O)NCC34CCCC4)nc2)CC1` (stereo not drawn) [Compound 5, 2′-((5-(4-methylpiperazin-1-yl)pyridin-2-yl)amino)-6′,6a′,8′,9′-tetrahydrospiro[cyclopentane-1,10′-pyrazino[1′,2′:1,6]pyrido[2,3-d]pyrimidine]-5′,7′-dione], the IC50 against CDK6/CycD3, on CDK5/p25, on CDK9/CycT, on CDK7/CycH/MAT1, at CDK2/CycA and against CDK2/CycE was greater than 100 µM in each case. Moreover, the IC50 against CDK5/p35 and on CDK4/CycD was greater than 100 µM throughout.

Take `CO[C@H]1CC[C@]2(CC1)CNC(=O)c1cc3cnc(Nc4ccc(N5CCN(C)CC5)cn4)nc3n12` [Compound 39, (1R,4R)-4-Methoxy-2′-((5-(4-methylpiperazin-1-yl)pyridin-2-yl)amino)-7′,8′-dihydro-6′H-spiro [cyclohexane-1,9′-pyrazino[1′,2′:1,5]pyrrolo [2,3-d]pyrimidin]-6′-one]: the IC50 against CDK9/Cyclin T was determined as 200 nM; at CDK6/Cyclin D3, 90 nM; at CDK4/CyclinD1, 60 nM; on CDK2/CyclinE it was 33 µM; on CDK2/CyclinA, 19000 nM.

For `CN1CCN(c2ccc(Nc3ncc4cc5n(c4n3)C3(CCCCC3)Cn3ccnc3-5)nc2)CC1` [Compound 25, N-(5-(4-Methylpiperazin-1-yl)pyridin-2-yl)-5′H -spiro[cyclohexane-1,6′-imidazo[2″,1″:3′,4′]pyrazino[1′,2′:1,5]pyrrolo[2,3-d]pyrimidin]-9′-amine], the IC50 came out at 6300 nM on CDK9/Cyclin T; 100 nM against CDK6/Cyclin D3; 30 nM at CDK4/CyclinD1; 99 µM at CDK2/CyclinE; 59000 nM at CDK2/CyclinA.

Regarding `CN1CCN(c2ccc(Nc3ncc4c(n3)N3C(CC4)C(=O)NCC3(C)C)nc2)CC1` (stereo not drawn) [Compound 2, 10,10-dimethyl-2-((5-(4-methylpiperazin-1-yl)pyridin-2-yl)amino)-6,6a,9,10-tetrahydro-5H-pyrazino[1′,2′:1,6]pyrido[2,3-d]pyrimidin-7(8H)-one], the IC50 at CDK6/CycD3, at CDK5/p25, against CDK9/CycT, against CDK2/CycA, against CDK2/CycE and at CDK5/p35 was greater than 100 µM each time. This compound also gave an IC50 on CDK4/CycD greater than 100 µM.

For `CN1CCN(c2ccc(Nc3ncc4c(n3)N3CCNC(=O)C3CC4=O)nc2)CC1` (stereo not drawn) [Compound 6, 2-((5-(4-methylpiperazin-1-yl)pyridin-2-yl)amino)-6,6a,9,10-tetrahydro-5H-pyrazino[1′,2′:1,6]pyrido[2,3-d]pyrimidine-5,7(8H)-dione], the IC50 is 50.4 µM on CDK6/CycD3; greater than 100 µM against CDK5/p25; greater than 100 µM on CDK9/CycT; greater than 100 µM at CDK7/CycH/MAT1; greater than 100 µM on CDK2/CycA; greater than 100 µM at CDK2/CycE. The IC50 against CDK5/p35 was greater than 100 µM; against CDK4/CycD, 14.4 µM.

`CN1CCN(c2ccc(Nc3ncc4cc5n(c4n3)C3(C=NC5)CCCCC3)nc2)CC1` [Compound 31, N-(5-(4-Methylpiperazin-1-yl)pyridin-2-yl)-6′H-spiro[cyclohexane-1,9′-pyrazino[1′,2′:1,5]pyrrolo[2,3-d]pyrimidin]-2′-amine]: the IC50 was 40 nM against CDK9/Cyclin T; 1 nM at CDK6/Cyclin D3; 0.6 nM on CDK4/CyclinD1; 0.04 µM at CDK2/CyclinE; 100 nM at CDK2/CyclinA.

In the case of `CN1CCN(c2ccc(Nc3ncc4c(n3)N3C(=NCC35CCCCC5)C(=O)N4)nc2)CC1` [Compound 27, 2′-((5-(4-Methylpiperazin-1-yl)pyridin-2-yl)amino)-5′H-spiro[cyclohexane-1,9′-imidazo[2,1-h]pteridin]-6′(8′H)-one], the IC50 is greater than 100000 nM at CDK9/Cyclin T; 21000 nM against CDK6/Cyclin D3; 9400 nM at CDK4/CyclinD1; greater than 100 µM on CDK2/CyclinE; greater than 100000 nM on CDK2/CyclinA.

For `CN1CCN([C@H]2CC[C@@H](Nc3ncc4cc5n(c4n3)C3(CCCCC3)CNC5=O)CC2)CC1` [Compound 41, 2′-(((1S,4S)-4-(4-Methylpiperazin-1-yl)cyclohexyl)amino)-7′,8′-dihydro-6′H-spiro[cyclohexane-1,9′-pyrazino[1′,2′:1,5]pyrrolo[2,3-d]pyrimidin]-6′-one], the IC50 at CDK9/Cyclin T is 70 nM; against CDK6/Cyclin D3, 800 nM; on CDK4/CyclinD1 it was 140 nM; at CDK2/CyclinE, 6 µM; at CDK2/CyclinA it was 2000 nM.

With `O=C1NCC2(CCCCC2)n2c1cc1cnc(N[C@H]3CC[C@H](N4CCN(CC5CC5)CC4)CC3)nc12` [Compound 36, 2′-(((1R,4R)-4-(4-(Cyclopropylmethyl)piperazin-1-yl)cyclohexyl)amino)-7′,8′-dihydro-6′H-spiro [cyclohexane-1,9′-pyrazino[1′,2′:1,5]pyrrolo[2,3-d]pyrimidin]-6′-one], the IC50 is 2 nM on CDK9/Cyclin T; 30 nM against CDK6/Cyclin D3; 4 nM on CDK4/CyclinD1; 0.3 µM at CDK2/CyclinE; 100 nM at CDK2/CyclinA.

Consider `CN1CCN([C@H]2CC[C@H](Nc3ncc4cc5n(c4n3)C3(CCCCC3)CNC5=O)CC2)CC1` [Compound 37, 2′-(((1R,4R)-4-(4-Methylpiperazin-1-yl)cyclohexyl)amino)-7′,8′-dihydro-6′H-spiro[cyclohexane-1,9′-pyrazino[1′,2′:1,5]pyrrolo[2,3-d]pyrimidin]-6′-one], for which the IC50 against CDK9/Cyclin T worked out at 3 nM; at CDK6/Cyclin D3 it was 40 nM; on CDK4/CyclinD1 it was 6 nM; at CDK2/CyclinE, 0.4 µM; on CDK2/CyclinA, 20 nM.

Turning to `CN1CCN(c2ccc(Nc3ncc4cc5n(c4n3)C3(CCCCC3)C(=O)NC5)nc2)CC1` [Compound 33, 2′-((5-(4-Methylpiperazin-1-yl)pyridin-2-yl)amino)-6′,7′-dihydro-8′H-spiro[cyclohexane-1,9′-pyrazino [1′,2′:1,5]pyrrolo[2,3-d]pyrimidin]-8′-one], the IC50 came to 3000 nM against CDK9/Cyclin T; 20 nM on CDK6/Cyclin D3; 6 nM on CDK4/CyclinD1; 4 µM on CDK2/CyclinE; 2000 nM on CDK2/CyclinA.
